# Results published in US20230220029A1, “ANTIVIRAL […] AND USES THEREOF” (VIRGINIA COMMONWEALTH UNIVERSITY, priority 2020, published 2023).
# Where a SMILES comes first, the peptide text is derived from it.
# Key:
# SARS-CoV-2, USA-WA1/2020 = conditions: USA-WA1/2020, 1 h, 200 μM
# [1] = Peptide stability by repeating the sVNT ELISA two months apart with the same solubilized peptide; type: physicochemical; conditions: ELISA tests two months apart with the same solubilized peptide
# From the text: FIGS. 4A-B. Surrogate virus test results for peptide 122023-C. FIG. 4A are results obtained in a first experiment and FIG. 4B are results obtained in a second experiment two months later using the same solubilized peptide.
# [2] = target: HRP-conjugated-S-protein-RBD binding to hACE2 (Severe acute respiratory syndrome coronavirus 2, UniProt P0DTC2); assay: biochemical; parameters: species or system SARS-CoV-2; conditions: sVNT ELISA, dose-dependent, FIG. 4
# [3] = target: HRP-conjugated-S-protein-RBD (SARS-CoV-2), P0DTC2
molecule,measurement,setting,value
CC(C)C[C@H](NC(=O)[C@H](CCC(N)=O)NC(=O)[C@H](CCC(=O)O)NC(=O)[C@H](C)NC(=O)[C@H](Cc1ccccc1)NC(=O)[C@H](CCCNC(=N)N)NC(=O)[C@H](CCC(=O)O)NC(=O)[C@H](CC(C)C)NC(=O)[C@H](Cc1ccccc1)NC(=O)[C@H](Cc1ccc(O)cc1)NC(=O)[C@H](CCCCN)NC(=O)[C@H](CC(C)C)NC(=O)[C@H](CCC(N)=O)NC(=O)[C@H](CCC(N)=O)NC(=O)[C@@H](N)CCC(=O)O)C(=O)N[C@@H](CCC(=O)O)C(=O)N[C@@H](CCC(N)=O)C(=O)N[C@@H](CC(C)C)C(=O)N[C@@H](Cc1ccccc1)C(=O)N[C@@H](Cc1ccc(O)cc1)C(=O)N[C@@H](CCC(N)=O)C(=O)N[C@@H](CO)C(=O)N[C@@H](CO)C(=O)O [Peptide 122023-A] (H-EQQLKYFLERFAEQLEQLFYQSS-OH; N-terminus and C-terminus assumed),inhibition at the highest concentration studied,"SARS-CoV-2, USA-WA1/2020",up to 95%
CC(C)C[C@H](NC(=O)[C@H](CC(=O)O)NC(=O)[C@H](CCC(=O)O)NC(=O)[C@H](CC(C)C)NC(=O)[C@H](CCC(N)=O)NC(=O)[C@H](CCC(=O)O)NC(=O)[C@H](CC(N)=O)NC(=O)[C@H](Cc1ccccc1)NC(=O)[C@H](CCCNC(=N)N)NC(=O)[C@H](CCC(=O)O)NC(=O)[C@H](CC(C)C)NC(=O)[C@H](Cc1ccccc1)NC(=O)[C@H](Cc1ccc(O)cc1)NC(=O)[C@H](CCCCN)NC(=O)[C@H](CC(C)C)NC(=O)[C@H](CCC(N)=O)NC(=O)[C@H](CCC(N)=O)NC(=O)[C@@H](N)CCC(=O)O)C(=O)N[C@@H](Cc1ccccc1)C(=O)N[C@@H](Cc1ccc(O)cc1)C(=O)N[C@@H](CCC(N)=O)C(=O)N[C@@H](CO)C(=O)N[C@@H](CO)C(=O)O [Peptide 122023-C] (H-EQQLKYFLERFNEQLEDLFYQSS-OH),peptide stability,[1],Excellent peptide stability
same,IC50,[2],~33.8 nM
EQQLKYFLERFNEQLEDLFYQSS (modifications not checked) [peptide 122023-C],IC50,[3],0.1 µg/mL
